Experiments:
A549 = test: Growth inhibition of human A549 cells after 48 hrs by SRB assay; type: functional, cell-based; conditions: A549, 48 h
KB = test: Growth inhibition of human KB cells after 48 hrs by SRB assay; type: functional, cell-based
Tubulin = Tubulin (Bos taurus, UniProt Q6B856+Q862L2+Q862F3)
MKN-45 = test: Growth inhibition of human MKN45 cells after 48 hrs by SRB assay; type: functional, cell-based; conditions: MKN-45, 48 h
Tubulin (Bos taurus) [1] = biological target: T1, Tubulin (Bos taurus) (UniProt Q6B856+Q862L2+Q862F3); conditions: at 5 µM
Tubulin (Bos taurus) [2] = biological target: T1, Tubulin (Bos taurus); conditions: at 1 µM
[3] = Growth inhibition of human KB-S15 cells after 48 hrs by SRB assay; type: functional; conditions: KB-S15, 48 h
[4] = Growth inhibition of human KB-7d cells after 48 hrs by SRB assay; type: functional; conditions: KB7D
[5] = Growth inhibition of human KB-VIN10 cells after 48 hrs by SRB assay; type: functional; conditions: KB-VIN10, 48 h
Histone deacetylase 9 = Histone deacetylase 9 (Homo sapiens, UniProt Q9UKV0); test: Inhibition of human HDAC9 using fluorogenic p53 (379-382) peptide RHKK(Ac) as substrate by fluorescence assay
Histone deacetylase 4 = Histone deacetylase 4 (Homo sapiens, UniProt P56524); test: Inhibition of human HDAC4 using fluorogenic p53-derived peptide RHKK(Ac) as substrate by fluorescence assay
[6] = biological target: T2, Polyamine deacetylase HDAC10 (Homo sapiens, UniProt Q969S8); test: Inhibition of human HDAC10 using RHKKAc as substrate by fluorescence assay
T2 sequence (Q969S8 whole entry): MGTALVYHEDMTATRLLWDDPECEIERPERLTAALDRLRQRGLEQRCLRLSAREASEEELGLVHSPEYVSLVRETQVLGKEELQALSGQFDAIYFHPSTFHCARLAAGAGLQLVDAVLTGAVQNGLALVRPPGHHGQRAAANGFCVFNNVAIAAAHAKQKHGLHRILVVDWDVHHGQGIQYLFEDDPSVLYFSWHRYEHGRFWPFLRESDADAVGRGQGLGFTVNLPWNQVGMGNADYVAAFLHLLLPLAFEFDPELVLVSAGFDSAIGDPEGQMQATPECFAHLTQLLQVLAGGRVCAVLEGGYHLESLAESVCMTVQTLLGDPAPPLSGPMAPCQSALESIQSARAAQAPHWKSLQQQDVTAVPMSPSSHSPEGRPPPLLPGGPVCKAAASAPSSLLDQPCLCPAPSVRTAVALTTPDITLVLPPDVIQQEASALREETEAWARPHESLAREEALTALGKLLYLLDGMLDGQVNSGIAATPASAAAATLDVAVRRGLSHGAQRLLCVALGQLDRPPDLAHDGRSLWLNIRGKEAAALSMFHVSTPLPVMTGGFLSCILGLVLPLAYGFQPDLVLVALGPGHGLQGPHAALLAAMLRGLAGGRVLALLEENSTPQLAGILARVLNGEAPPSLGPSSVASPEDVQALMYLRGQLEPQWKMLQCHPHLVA

Histone deacetylase 4, sequence (P56524 whole entry): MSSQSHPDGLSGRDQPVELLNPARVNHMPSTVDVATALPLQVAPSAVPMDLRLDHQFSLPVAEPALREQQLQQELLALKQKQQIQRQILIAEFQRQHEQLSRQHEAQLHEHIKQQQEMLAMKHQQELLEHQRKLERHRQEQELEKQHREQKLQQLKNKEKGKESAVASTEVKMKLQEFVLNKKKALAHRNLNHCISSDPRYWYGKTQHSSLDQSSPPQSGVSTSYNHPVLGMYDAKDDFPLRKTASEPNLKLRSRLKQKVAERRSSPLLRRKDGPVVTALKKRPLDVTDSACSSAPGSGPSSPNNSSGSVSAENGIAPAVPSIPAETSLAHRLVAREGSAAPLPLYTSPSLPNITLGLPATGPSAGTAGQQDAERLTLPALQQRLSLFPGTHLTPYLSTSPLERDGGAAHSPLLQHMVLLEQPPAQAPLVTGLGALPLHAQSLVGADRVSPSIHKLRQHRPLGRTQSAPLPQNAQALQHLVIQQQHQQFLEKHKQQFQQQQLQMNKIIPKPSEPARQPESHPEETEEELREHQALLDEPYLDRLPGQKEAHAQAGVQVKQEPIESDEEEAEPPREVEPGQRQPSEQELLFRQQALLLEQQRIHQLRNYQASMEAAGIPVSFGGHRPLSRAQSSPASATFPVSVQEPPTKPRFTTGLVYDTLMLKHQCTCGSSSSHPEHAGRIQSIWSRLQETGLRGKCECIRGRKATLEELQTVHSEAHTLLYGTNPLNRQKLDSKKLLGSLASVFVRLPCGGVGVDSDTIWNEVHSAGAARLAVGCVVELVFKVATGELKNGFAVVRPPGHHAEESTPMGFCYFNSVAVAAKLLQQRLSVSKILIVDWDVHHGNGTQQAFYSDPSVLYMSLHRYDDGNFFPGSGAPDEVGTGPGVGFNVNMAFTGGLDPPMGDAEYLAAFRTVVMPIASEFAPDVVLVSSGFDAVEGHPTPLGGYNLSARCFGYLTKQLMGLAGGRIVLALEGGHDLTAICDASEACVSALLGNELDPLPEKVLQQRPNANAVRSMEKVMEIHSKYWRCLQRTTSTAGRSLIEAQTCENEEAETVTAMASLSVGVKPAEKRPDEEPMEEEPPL
Histone deacetylase 9, sequence (Q9UKV0 whole entry): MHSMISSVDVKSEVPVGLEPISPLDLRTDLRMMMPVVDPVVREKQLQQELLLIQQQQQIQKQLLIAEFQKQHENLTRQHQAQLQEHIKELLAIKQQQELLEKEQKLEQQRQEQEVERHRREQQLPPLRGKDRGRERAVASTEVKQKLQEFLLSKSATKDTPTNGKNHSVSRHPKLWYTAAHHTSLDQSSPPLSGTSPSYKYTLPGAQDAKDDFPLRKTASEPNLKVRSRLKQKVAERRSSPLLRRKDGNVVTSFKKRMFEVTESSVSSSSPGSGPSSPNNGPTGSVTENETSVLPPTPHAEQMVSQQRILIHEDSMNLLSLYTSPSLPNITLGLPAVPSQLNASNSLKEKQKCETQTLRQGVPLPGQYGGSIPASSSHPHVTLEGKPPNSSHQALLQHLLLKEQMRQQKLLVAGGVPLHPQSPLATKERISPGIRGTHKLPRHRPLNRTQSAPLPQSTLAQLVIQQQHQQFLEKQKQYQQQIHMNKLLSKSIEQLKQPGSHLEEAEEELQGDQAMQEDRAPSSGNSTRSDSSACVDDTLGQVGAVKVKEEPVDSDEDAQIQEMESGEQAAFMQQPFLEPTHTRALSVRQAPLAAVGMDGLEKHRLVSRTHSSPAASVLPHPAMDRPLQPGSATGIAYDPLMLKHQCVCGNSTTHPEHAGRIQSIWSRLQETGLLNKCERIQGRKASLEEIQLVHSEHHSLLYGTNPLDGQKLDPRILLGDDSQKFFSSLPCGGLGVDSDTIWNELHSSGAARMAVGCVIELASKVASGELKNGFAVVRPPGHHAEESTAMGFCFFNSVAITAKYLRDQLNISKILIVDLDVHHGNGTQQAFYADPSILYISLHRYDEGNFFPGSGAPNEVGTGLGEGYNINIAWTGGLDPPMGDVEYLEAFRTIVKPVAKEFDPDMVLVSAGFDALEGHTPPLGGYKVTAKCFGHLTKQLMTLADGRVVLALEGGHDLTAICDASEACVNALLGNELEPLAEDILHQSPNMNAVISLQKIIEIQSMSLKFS

Compound	IC50 (A549) [nM]	IC50 (KB) [nM]	IC50 (Tubulin) [nM]	IC50 (MKN-45) [nM]	other results
COc1ccc(S(=O)(=O)N2CCc3cccc(NC(=O)c4ccc(C(=O)Nc5ccccc5N)cc4)c32)cc1	> 10000	–	–	–	–
COc1ccc(S(=O)(=O)N2CCc3ccc(NCc4ccc(C(=O)Nc5ccccc5N)cc4)cc32)cc1	2400	870	> 10000	2100	–
COc1ccc(S(=O)(=O)Nc2cccnc2Nc2ccc(O)cc2)cc1 [ABT-751]	–	–	3200	–	inhibition (Tubulin (Bos taurus) [1]): 71.6%; inhibition (Tubulin (Bos taurus) [2]): 40.2%
COc1ccc(S(=O)(=O)n2ccc3ccc(NCc4ccc(C(=O)Nc5ccccc5N)cc4)cc32)cc1	3900	1440	> 10000	2500	–
COc1ccc(S(=O)(=O)N2CCc3cccc(NCc4ccc(C(=O)Nc5ccccc5O)cc4)c32)cc1	10500	8700	> 10000	10000	–
COc1ccc(S(=O)(=O)N2CCc3cccc(NCc4cccc(C(=O)Nc5ccccc5N)c4)c32)cc1	5700	2200	8500	3900	–
COc1ccc(S(=O)(=O)N2CCc3cccc(NCc4ccc(C(=O)Nc5ccccc5N)cc4)c32)cc1OC	2700	1400	> 10000	2300	–
Nc1ccccc1NC(=O)c1ccc(CNC(=O)OCc2cccnc2)cc1 [ENTINOSTAT]	–	520	–	1200	IC50 (Histone deacetylase 9): Not Active; IC50 (Histone deacetylase 4): Not Active; IC50 [6]: Not Active
COc1cccc(S(=O)(=O)N2CCc3cccc(NCc4ccc(C(=O)Nc5ccccc5N)cc4)c32)c1	1100	780	3500	800	–
COc1ccc(S(=O)(=O)N2CCc3cc(NCc4ccc(C(=O)Nc5ccccc5N)cc4)ccc32)cc1	8900	2100	> 10000	5000	–

The next lines start with results.

IC50 (A549) [nM]	IC50 (KB) [nM]	IC50 (Tubulin) [nM]	IC50 (MKN-45) [nM]	Compound	other results
200	110	2500	130	COc1ccc(S(=O)(=O)N2CCc3cccc(CCc4ccc(C(=O)Nc5ccccc5N)cc4)c32)cc1	–
860	440	3300	780	Nc1ccccc1NC(=O)c1ccc(CNc2cccc3c2N(S(=O)(=O)c2ccc(O)cc2)CC3)cc1	–
560	210	4000	460	Nc1ccccc1NC(=O)c1ccc(CNc2cccc3c2N(S(=O)(=O)c2ccc(Cl)cc2)CC3)cc1	–
870	260	3200	780	Nc1ccccc1NC(=O)c1ccc(CNc2cccc3c2N(S(=O)(=O)c2ccccc2)CC3)cc1	–
190	120	2300	140	COc1ccc(S(=O)(=O)N2CCc3cccc(Nc4ccc(C(=O)Nc5ccccc5N)cc4)c32)cc1	inhibition (Tubulin (Bos taurus) [1]): 98.8%; IC50 [3]: 106 nM; IC50 [4]: 78.3 nM; inhibition (Tubulin (Bos taurus) [2]): 64.3%; IC50 [5]: 114 nM
570	260	3700	480	COc1ccc(S(=O)(=O)N2CCc3cccc(NCc4ccc(C(=O)Nc5ccc(N)cc5)cc4)c32)cc1	–
640	130	3700	440	COc1ccc(S(=O)(=O)n2ccc3cccc(NCc4ccc(C(=O)Nc5ccccc5N)cc4)c32)cc1	–
270	230	2700	200	COc1ccc(S(=O)(=O)N2CCc3cccc(/C=C/c4ccc(C(=O)Nc5ccccc5N)cc4)c32)cc1	–
450	200	2300	420	COc1ccc(S(=O)(=O)N2CCc3cccc(NCc4ccc(C(=O)Nc5cccc(N)c5)cc4)c32)cc1	–
930	540	3700	870	Nc1ccccc1NC(=O)c1ccc(CNc2cccc3c2N(S(=O)(=O)c2ccc(F)cc2)CC3)cc1	–
920	560	6400	880	N#Cc1ccc(S(=O)(=O)N2CCc3cccc(NCc4ccc(C(=O)Nc5ccccc5N)cc4)c32)cc1	–

— ChEMBL document CHEMBL4382249, “1-Arylsulfonyl indoline-benzamides as a new antitubulin agents, with inhibition of histone deacetylase” (Eur J Med Chem, 2019)
